Assay results taken from patent US11504381B1 (priority 2021, dated 2022).

Tests used:
recombinant MDM2 protein [1] = molecular target: T1, recombinant MDM2 protein (Homo sapiens (Human), UniProt Q00987); assay: biochemical; assay type: binding
Protocol: Qualitative evaluation of compound binding to MDM2 was determined using a fluorescence-based thermal shift assay with a Roche LC480 lightcycler. Each experiment was performed in ˜30 mins with ramping up of temperature to monitor thermal denaturation of MDM2. Compounds at 0.16 mM, 0.08 mM and 0.04 mM were added to recombinant MDM2 protein and SYPRO orange dye in 5% DMSO 50 mM Bis-Tris Propane pH 8.0 and 100 mM NaCl. Positive thermal shift was indicative of compound binding to the proteins of interest.

recombinant MDM2 protein [2] = molecular target: T1, recombinant MDM2 protein; conditions: competitive binding vs fluorescently labeled peptide probe, 10% DMSO, pH 7.2; read-out: Fluorescence Polarization Assay KI
Protocol: The compounds binding to MDM2 were determined by a quantitative fluorescence polarization binding assay using a recombinant MDM2 protein and fluorescently labeled peptide probes using a BioTek Cytation 5 machine. Compounds were tested in 10% DMSO, 100 mM potassium phosphate pH 7.2, 100 ug/ml bovine γ-globulin, 0.02% (w/v) sodium azide and 0.01% (v/v) triton X-100. KI values of tested compounds were determined in a dose-dependent competitive binding experiment by fitting the sigmoidal dose-dependent FP increases as a function of […] concentrations using Graphpad Prism software.

T1 sequence (Q00987 whole entry): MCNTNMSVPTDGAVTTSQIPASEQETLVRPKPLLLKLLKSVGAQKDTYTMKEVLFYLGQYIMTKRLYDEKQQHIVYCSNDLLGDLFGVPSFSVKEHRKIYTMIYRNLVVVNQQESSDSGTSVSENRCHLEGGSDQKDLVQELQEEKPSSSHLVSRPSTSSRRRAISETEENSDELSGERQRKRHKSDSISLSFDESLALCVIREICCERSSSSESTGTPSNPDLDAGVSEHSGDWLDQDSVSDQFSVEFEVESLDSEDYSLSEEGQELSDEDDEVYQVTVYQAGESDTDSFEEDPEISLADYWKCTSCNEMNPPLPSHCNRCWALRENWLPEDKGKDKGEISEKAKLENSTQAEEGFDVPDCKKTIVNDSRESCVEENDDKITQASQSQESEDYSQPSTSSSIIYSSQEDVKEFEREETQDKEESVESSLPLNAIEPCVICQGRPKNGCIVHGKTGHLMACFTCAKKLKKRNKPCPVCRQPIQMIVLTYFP

ΔTm at 40 µM (recombinant MDM2 protein [1]; read-out: Thermal Shift 0.04 mM): 0 °C | ΔTm at 80 µM (recombinant MDM2 protein [1]; read-out: Thermal Shift 0.08 mM): 0 °C | ΔTm at 160 µM (recombinant MDM2 protein [1]; read-out: Thermal Shift 0.16 mM): 0.6 °C | Ki (recombinant MDM2 protein [2]): 118 µM
SMILES: CC(=O)Nc1cc(C(F)(F)F)cnc1N1CCN(CC(=O)O)CC1c1ccc(Cl)cc1 (stereo not shown) [Compound 2, 2-(4-(3-acetamido-5-(trifluoromethyl)pyridin-2-yl)-3-(4-chlorophenyl)piperazin-1-yl)acetic acid]
